Laboratory results taken from patent US9505798B2, “Steroid compounds as RORyt modulators and uses thereof” (New York University, priority 2010, dated 2016).
pIC50: −log10 of the molar value.

What was measured:
[1] = tested on: IL-17a production in human CD4+ T cells; test: Human cord blood CD4+ T cells expressing murine ATP1a1, Th17 conditions; type: cell-based; details: murine Na+/K+-ATPase α1 expressed, 10 μM
Description: (§1) Blood samples were obtained from the New York Blood Center. Mononuclear cells were prepared from buffy coats from healthy adult donors or from cord blood, using FicollPAQUE gradients. CD4^+ T cells were magnetically selected (autoMACS, Miltenyi). Adult memory CD4+ T cell subsets were further purified as CD3^+CD4^+CD25^−CD45RO^+CCR6^+CD161^+ by cell sorting on a FACSAria (BD). Naive CD4^+ T cells were isolated from cord blood as CD3^+CD4^+CD45RA^+HLA^−DR^−CD25^−DAPI^−. Memory cells were activated with anti-CD3/CD28 coated beads (1 bead/cell) in T cell media (see above) supplemented with 100 U/mL IL-2 (Peprotech), 10 ng/mL IL-1β and 10 ng/mL IL-23 (eBioscience). Naive cells were activated with anti-CD3/CD28 beads and cultured with the same cytokines, and TGF-β (0, 0.1, 1, or, 10 ng/mL) (Peprotech), in XVIVO-20 (Lonza) media. […] Naive CD4+ T cells, cultured in XVIVO-20 media supplemented with 100 U/mL IL-2 (Peprotech), were transduced with RORαd-IRES-GFP or RORγt-IRES-GFP on day 1 and analyzed on day 6. GFP expressing cells were gated for analysis. DMSO or compounds were added 6-8 hours after the viral transduction.

[2] = target: T1, mouse RORγt (Mus musculus, UniProt P51450); test: Drosophila S2 cell RORγt luciferase reporter; type: cell-based; details: for effect on RORγ transcriptional activity: S2 reporter system
T1 construct: mouse RORγt (amino acids 79 to the carboxyl terminal end); expressed in transfected cells
T1 sequence (P51450 79-495 isoform P51450-2): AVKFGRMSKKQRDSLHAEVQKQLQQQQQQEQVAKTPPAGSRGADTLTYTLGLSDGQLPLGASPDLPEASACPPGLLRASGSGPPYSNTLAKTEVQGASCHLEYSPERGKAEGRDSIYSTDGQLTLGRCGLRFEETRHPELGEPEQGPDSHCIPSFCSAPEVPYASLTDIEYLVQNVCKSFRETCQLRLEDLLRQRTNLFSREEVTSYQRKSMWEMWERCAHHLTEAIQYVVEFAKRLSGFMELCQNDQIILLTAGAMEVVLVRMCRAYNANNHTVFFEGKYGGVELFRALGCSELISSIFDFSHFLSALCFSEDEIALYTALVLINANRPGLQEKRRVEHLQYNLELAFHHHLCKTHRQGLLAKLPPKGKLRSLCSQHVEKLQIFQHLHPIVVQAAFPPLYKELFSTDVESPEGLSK
From the text: The Drosophila S2 cell line was originally purchased from Invitrogen and was maintained in Schneider's medium supplemented with 10% heat-inactivated bovine fetal calf serum and antibiotics (Invitrogen). […] The resulting chimeric gene was subcloned into the copper inducible pMT/V5-His A vector (Invitrogen). […] Coding sequences for firefly luciferase (Promega) were PCR amplified and subcloned into pUAST vector containing Gal4 binding enhancer sequences. Renilla luciferase construct under the polIII promoter was obtained from Dr. Dasgupta's laboratory (NYU medical center). In order to generate stable cell lines, cells were co-transfected with pMT-G4 DBD-RORγt, pMT-G4 DBD-RORα, pMT-G4 DBD-DHR3, or pMT-G4 DBDVP16 and pHygro plasmids (Invitrogen) and screened for resistant colonies in the presence of hygromycin (0.3 mg/mL). […] Using similar methods, stable clones with genomic integration of the luciferase reporters and other reporters were generated such as pMT-RORα_luc, pMT-DHR3_Luc, or pMT-VP16_luc.
(§2) The following representative compounds are tested for their RORγt inhibitory activity and toxicity.
Promega Dual-Glo system is widely used for HTS as the luciferase substrates. Cell culture medium was reduced to the final volume of 10 μl or less and 10 μl of Dual-glo and 10 μl of Stop-glo luciferase substrates were added in a sequencial manner (Promega). Firefly and Renilla luciferase activity was determined by measuring luminescence signals using an automated 384-well plate reader equipped with multiple stack units (such as the Analyst GT or Envision plate readers).
10,000 Drosophila stable S2 cells with genomic integration of the Cu2+-inducible G4 DBD-mouse RORγ construct were transfected with 5 ng of pUASTfirefly luciferase and 7 ng of Pol III-Renilla luciferase and dispensed into white bottom-tissue culture 384-well plates (Corning). […] The following morning, Stop-glo luciferase substrates (Promega) were used to measure luciferase activity.
The Drosophila S2 cell line was originally purchased from Invitrogen and was maintained in Schneider's Drosophila medium supplemented with 10% heat-inactivated bovine fetal calf serum and 1× antibiotic-antimycotic solution (Invitrogen). […] The resulting chimeric gene was subcloned into the copper inducible pMT/V5-His A vector (Invitrogen) and into the constitutive pAc vector. […] Coding sequences for firefly luciferase (Promega) were PCR amplified and subcloned into the pUAST vector containing five Gal4 binding enhancer sequences. The Renilla luciferase construct under a pol III promoter and the pAc vector were obtained from R. Dasgupta (NYU School of Medicine). To generate cell lines stably expressing various chimeric proteins upon copper addition, S2 cells were co-transfected with pMT plasmids encoding individual G4 DBD chimeric constructs and the pCoHygro plasmid (Invitrogen), before screening for resistant colonies in the presence of hygromycin (0.3 mg/mL). […] The human androgen receptor (hAR) expression plasmid pMK33-hAR and its reporter TAT3-Luc were obtained from M. Garabedian (NYU School of Medicine). […] R1881 (10 nM) and Dafachronic acid (10 μM) were used as ligands for hAR and Daf12. Upon treatment of cells with copper, in 384 well plates, there was specific increase in firefly luciferase activity versus normalized Renilla luciferase activity for all cell lines described above, validating the method for high-throughput screen.
Transfections of firefly and Renilla reporter constructs were performed using the Effectene kit from Qiagen according to the manufacturer's protocol with some modifications.

[3] = target: T2, human RORγt (Homo sapiens, UniProt P51449); test: IL-17a induction in human CD4+ T cells transduced with RORαd, RORβ or RORγt; type: cell-based; details: 10 μM, FIG. 3b
T2 construct: expressed in transfected cells; host or cells: human CD4+ T cells (cord blood or adult blood), lentiviral HDV-IRES-GFP/HSA vectors
T2 sequence (P51449 1-497 isoform P51449-2): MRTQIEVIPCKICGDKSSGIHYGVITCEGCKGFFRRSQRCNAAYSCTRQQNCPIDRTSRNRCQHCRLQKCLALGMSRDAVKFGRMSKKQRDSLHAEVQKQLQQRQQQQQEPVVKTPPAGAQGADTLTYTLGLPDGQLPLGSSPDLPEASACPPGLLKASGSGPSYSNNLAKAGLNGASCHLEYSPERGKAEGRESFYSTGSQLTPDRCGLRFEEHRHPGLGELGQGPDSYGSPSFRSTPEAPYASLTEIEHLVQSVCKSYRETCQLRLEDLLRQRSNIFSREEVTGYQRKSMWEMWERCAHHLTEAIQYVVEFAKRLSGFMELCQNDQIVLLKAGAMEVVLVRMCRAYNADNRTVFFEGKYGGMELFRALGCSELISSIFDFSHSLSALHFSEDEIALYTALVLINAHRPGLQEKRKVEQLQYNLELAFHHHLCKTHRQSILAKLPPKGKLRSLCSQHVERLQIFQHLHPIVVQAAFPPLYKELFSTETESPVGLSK
Description: (§3) GFP expressing cells were gated for analysis. DMSO, Dig(dhd) (40 μM) or Dig(sal) (10 μM) was added 6-8 h after viral transduction. c, Flow cytometry of the production of IL-17a and IFN-γ by human naive cord blood T cells cultured for six days in the presence of IL-2, IL-23, and IL-1β, with various concentrations of TGF-β. DMSO, Dig(dhd), or Dig(sal) at indicated concentrations (μM) was added 16 h after cytokine addition.
(§4) Blood samples were obtained from the New York Blood Center. Mononuclear cells were prepared from buffy coats from healthy adult donors or from cord blood, using FicollPAQUE gradients. CD4^+ T cells were magnetically selected (autoMACS, Miltenyi). Adult memory CD4^+ T cell subsets were further purified as CD3^+CD4^+CD25^− CD45RO^+CCR6^+CD161^+ by cell sorting on a FACSAria (BD). Naive CD4^+ T cells were isolated from cord blood as CD3^+CD4^+CD45RA^+HLA-DR^−CD25^−DAPI^−. Memory cells were activated with anti-CD3/CD28 coated beads (1 bead/cell) in T cell media (see above) supplemented with 100 U/mL IL-2 (Peprotech), 10 ng/mL IL-1b and 10 ng/mL IL-23 (eBioscience). Naive cells were activated with anti-CD3/CD28 beads and cultured with the same cytokines, and TGF-b (0, 0.1, 1, or, 10 ng/mL) (Peprotech), in XVIVO-20 (Lonza) media. […] Naive CD4^+ T cells, cultured in XVIVO-20 media supplemented 100 U/mL IL-2 (Peprotech), were transduced with RORad-IRES-GFP or RORγt-IRES-GFP on day 1 and analyzed on day 6. GFP expressing cells were gated for analysis. DMSO or compounds were added 6-8 hours after the viral transduction.
Blood samples were obtained from the New York Blood Center. Mononuclear cells were prepared from buffy coats from healthy adult donors or from cord blood, using FicollPAQUE gradients. CD4^+ T cells were magnetically selected (autoMACS, Miltenyi). Adult memory CD4+ T cell subsets were further purified as CD3^+CD4^+CD25^−CD45RO^+CCR6^+CD161^+ by cell sorting on a FACSAria (BD). […] Naive CD4+ T cells, cultured in XVIVO-20 media supplemented with 100 U/mL IL-2 (Peprotech), were transduced with RORαd-IRES-GFP or RORγt-IRES-GFP on day 1 and analyzed on day 6. […]

[4] = Precipitation noted in Table 2; type: physicochemical
[5] = tested on: human Th17 cell differentiation; test: Human Th17 cell differentiation from naive cord blood CD4+ T cells; type: cell-based
Description: as §3, §4, §1

[6] = target: T3, RORγt (Mus musculus, UniProt P51450); type: cell-based; details: mouse T cells
T3 construct: expressed in transfected cells; host or cells: mouse naive CD4+ T cells, retroviral MIGr vector
Description: Naive CD25^− CD62L^+CD44^low/int cells were sorted from RORγt^fl/fl mice and transduced with control-IRES-GFP (WT) or CRE-IRES-GFP (KO) retrovirus. […] FACS-sorted naive T cells were transduced with retroviral vectors encoding murine RORα-IRES-GFP or RORγt-IRES-GFP on Day 1 (16 h after TCR stimulation) and GFP expressing cells were gated for analysis on Day 5. […] Lymphocytes were isolated on day 21 after disease induction. The cells were stimulated for 4 h with PMA/Ionomycin and stained for surface markers and intracellular cytokines.
T cells were purified from lymph nodes and spleens of six to eight weeks old B6 mice (Taconic), by magnetically depleting B220^+ cells (autoMACS, Miltenyi), and then sorting CD8^−DAPI^−CD19^−CD4^+CD25^−CD62L^+CD44^low/Int naive T cells on a FACSAria (BD). […] For T cell polarization, 200 μl cells were seeded at 0.4×10^5 cells per mL in 96-well plates pre-coated with anti-CD3ε (5 μg/mL) and anti-CD28 (10 μg/mL). Cells were cultured for 4-5 days in Th17 (TGF-β (0.3 ng/mL), IL-6 (20 ng/mL), and anti-IFN-γ and anti-IL-4 (2 ng/mL)), Th1 (IL-12 (10 ng/mL), IL-2 (10 U/mL) and anti-IL-4 (2 ng/mL)), or Th2 (IL-4 (10 ng/mL), and anti-P35 and anti-IFN-γ 2 ng/mL)) conditions. For ectopic expression ROR proteins, native CD4^+ T cells were infected with retroviral MIGr-control, MIGr-RORα or MIGr-RORγ 24 hrs after activation, and cultured without exogenous cytokines or only with IL-6. At day 1, compounds dissolved in DMSO were added. For cytokine analysis, cells were incubated for 5 hours with phorbol 12-myristate 13-acetate (50 ng/mL; Sigma), ionomycin (500 ng/mL; Sigma) and GolgiStop (BD). Intracellular cytokine staining was performed according to the manufacturer's protocol (Cytofix/Cytoperm buffer set from BD) with alexa647-conjugated anti-IL-17a (eBioscience), and PE-conjugated anti-IFN-γ or anti-IL-4 (eBioscience). An LSR II (BD Biosciences) and FlowJo software (Tree Star) were used for flow cytometry and analysis. Dead cells were excluded using the Live/Dead fixable aqua dead cell stain kit (Invitrogen).

[7] = tested on: Na+/K+-ATPase; details: compared with digoxin; cited from earlier work
[8] = tested on: human embryonic kidney 293t cell lines; test: Toxicity on human embryonic kidney 293T cells
Description: as §2

T3 sequence (P51450 other isoform, or with tags, fused parts or gaps): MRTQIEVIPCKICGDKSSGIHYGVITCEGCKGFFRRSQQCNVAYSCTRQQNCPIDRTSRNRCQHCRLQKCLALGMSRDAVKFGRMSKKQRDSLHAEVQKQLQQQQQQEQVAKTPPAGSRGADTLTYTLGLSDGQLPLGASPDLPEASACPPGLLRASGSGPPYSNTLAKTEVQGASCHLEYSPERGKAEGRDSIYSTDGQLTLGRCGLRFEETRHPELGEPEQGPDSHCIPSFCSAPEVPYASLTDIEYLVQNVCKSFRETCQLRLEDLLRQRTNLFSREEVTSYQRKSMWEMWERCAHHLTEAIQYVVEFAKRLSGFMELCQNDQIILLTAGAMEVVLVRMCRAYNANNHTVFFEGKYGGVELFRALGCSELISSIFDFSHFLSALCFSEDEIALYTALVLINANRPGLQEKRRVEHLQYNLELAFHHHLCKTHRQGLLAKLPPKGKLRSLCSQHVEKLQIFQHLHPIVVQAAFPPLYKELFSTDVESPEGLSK

CC(=O)O[C@H]1C[C@H](O[C@H]2[C@@H](O)C[C@H](O[C@H]3[C@@H](O)C[C@H](O[C@H]4CC[C@@]5(C)[C@H](CC[C@@H]6[C@@H]5C[C@@H](O)[C@]5(C)[C@@H](C7=CC(=O)OC7)CC[C@]65O)C4)O[C@@H]3C)O[C@@H]2C)O[C@H](C)[C@H]1O[C@@H]1O[C@H](CO)[C@@H](O)[C@H](O)[C@H]1O [lanatoside C, Lanatoside C]
IL-17a expression [1]: no effect | effect on RORγ transcriptional activity [2]: no significant effect

CC1OC(OC2C(O)CC(OC3C(O)CC(OC4CCC5(C)C(CCC6C5CC(O)C5(C)C(C7=CC(=O)OC7=Cc7ccccc7O)CCC65O)C4)OC3C)OC2C)CC(O)C1O (stereo not drawn) [Compound 15, Digoxin-21-salicylidene]
RORγt-mediated IL-17a induction (versus RORαd) [3]: selectively suppressed | Note [4]: precipitate at high | pIC50 [2]: > 6.00 | IFN-γ expression in T cells ([5]; FIG. 3c): reciprocal increases | Th17 cell differentiation ([5]; FIG. 3c): blocked | inhibition at 10 µM ([5]; Homo sapiens, CD4+ T, at 10 uM): ~70%

C[C@H]1O[C@@H](O[C@H]2[C@@H](O)C[C@H](O[C@H]3[C@@H](O)C[C@H](O[C@H]4CC[C@@]5(C)[C@H](CC[C@@H]6[C@@H]5CC[C@]5(C)[C@@H](C7=CC(=O)OC7)CC[C@]65O)C4)O[C@@H]3C)O[C@@H]2C)C[C@H](O)[C@@H]1O [Digitoxin]
effect on RORγ transcriptional activity [2]: selectively inhibited RORγ with similar IC50 values | RORγt-dependent Th17 cell differentiation [6]: selectively inhibited

CC1OC(OC2C(O)CC(OC3C(O)CC(OC4CCC5(C)C(CCC6C5CC(O)C5(C)C(C7COC(=O)C7)CCC65O)C4)OC3C)OC2C)CC(O)C1O (stereo not drawn) [20,22-Dihydrodigoxin]
Na+/K+-ATPase inhibition / binding affinity [7]: much lower binding affinity than that of digoxin | effect on RORγ transcriptional activity [2]: inhibited | cytotoxic concentration on human cells [8]: 2.5 µM

β-acetyldigoxin
effect on RORγ transcriptional activity [2]: selectively inhibited RORγ with similar IC50 values | RORγt-dependent Th17 cell differentiation [6]: selectively inhibited
